Structures can show the parent of a compound that is named as a salt. Where two headings read alike, the source gives them in different places.
Assays:
hPPARα = molecular target: T1, hPPARα (Homo sapiens, UniProt Q07869); assay: Determination of hPPARα activity (GAL4-LBD luciferase reporter transactivation in HEK-293 cells); format: cell-based; conditions: 50 μM compound
T1 construct: expressed in transfected cells; host or cells: HEK-293
T1 sequence (Q07869 239-466 limits assumed): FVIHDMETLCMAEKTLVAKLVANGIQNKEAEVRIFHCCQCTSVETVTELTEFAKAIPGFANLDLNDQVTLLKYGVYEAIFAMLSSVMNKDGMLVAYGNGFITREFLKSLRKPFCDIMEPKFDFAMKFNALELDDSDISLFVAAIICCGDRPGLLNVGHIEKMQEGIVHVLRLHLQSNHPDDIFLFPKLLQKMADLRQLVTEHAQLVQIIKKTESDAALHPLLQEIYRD
Procedure: a) Determination of hPPARα Activity Ligand binding domain of hPPARα was fused to […] of Yeast transcription factor GAL4 in eucaryotic expression vector. Using superfect (Qiagen, Germany) as transfecting reagent HEK-293 cells are transfected with this plasmid and a reporter plasmid harboring the luciferase gene driven by a GAL4 specific promoter. Compound can be added at different concentrations after 42 hrs of transfection and incubated overnight. Luciferase activity as a function of compound binding/activation capacity of PPARα will be measured using Packard Luclite kit (Packard, USA) in Top Count (Ivan Sadowski, Brendan Bell, Peter Broag and Melvyn Hollis. Gene. 1992. 118 : 137-141; Superfect Transfection Reagent Handbook. February 1997. Qiagen, Germany).

Swiss albino mice = assay: Plasma triglyceride lowering activity in Swiss albino mice; format: in vivo; conditions: Mus musculus, 144 h, read-out: % of Reduction in Triglyceride
Procedure: b) Plasma Triglyceride and Total Cholesterol Lowering Activity in Swiss Albino Mice and Guinea Pigs
Male Swiss albino mice (SAM) and male Guinea pigs are obtained from NIN and housed in DRF animal house. All these animals are maintained under 12 hour light and dark cycle at 25±1° C. Animals are given standard laboratory chow (NIN, Hyderabad, India) and water, ad libitum. SAM of 20-25 g body weight range and Guinea pigs of 500-700 g body weight range are used (Oliver, P., Plancke, M. O., Marzin, D., Clavey, V., Sauzieres, J and Fruchart, J. C. Effects of fenofibrate, gemfibrozil and nicotinic acid on plasma lipoprotein levels in normal and hyperlipidemic mice. Atherosclerosis. 1988. 70 : 107-114).
The test compounds can be administered orally to Swiss albino mice at 0.3 to 30 mg/kg/day dose for 6 days. Control mice are treated with vehicle (0.25% Carboxymethylcellulose; dose 10 ml/kg). The test compounds are administered orally to Guinea pigs at 0.3 to 30 mg/kg/day dose for 6 days. Control animals are treated with vehicle (0.25% Carboxymethylcellulose; dose 5 ml/kg).
The blood samples can be collected in fed state 1 hour after drug administration on 0 and 6 day of treatment. The blood can be collected from the retro-orbital sinus through heparinised capillary in EDTA containing tubes. After centrifugation, plasma sample was separated for triglyceride and total cholesterol (Wieland, O. Methods of Enzymatic analysis. Bergermeyer, H. O., Ed., 1963. 211-214; Trinder, P. Ann. Clin. Biochem. 1969. 6 : 24-27). Measurement of plasma triglyceride, total cholesterol and HDL are done using commercial kits (Dr. Reddy's Diagnostic Division, Hyderabad, India).

hPPARγ1 = molecular target: T2, hPPARγ1 (Homo sapiens, UniProt P37231); assay: Determination of hPPARγ activity (GAL4-LBD luciferase reporter transactivation in HEK-293 cells); format: cell-based; conditions: 1 μM compound
T2 construct: expressed in transfected cells; host or cells: HEK-293
T2 sequence (P37231 238-503 limits assumed): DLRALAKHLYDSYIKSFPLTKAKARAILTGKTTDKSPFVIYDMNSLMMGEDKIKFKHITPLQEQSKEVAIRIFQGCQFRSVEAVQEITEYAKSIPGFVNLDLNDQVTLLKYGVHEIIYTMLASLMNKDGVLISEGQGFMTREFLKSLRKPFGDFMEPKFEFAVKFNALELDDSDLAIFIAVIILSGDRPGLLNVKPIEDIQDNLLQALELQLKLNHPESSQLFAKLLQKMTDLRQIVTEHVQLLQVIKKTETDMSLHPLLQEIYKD
Procedure: b) Determination of hPPARγ Activity
Ligand binding domain of hPPARγ1 is fused to DNA binding domain of Yeast transcription factor GAL4 in eucaryotic expression vector. Using lipofectamine (Gibco BRL, USA) as transfecting reagent HEK-293 cells are transfected with this plasmid and a reporter plasmid harboring the luciferase gene driven by a GAL4 specific promoter. Compound can be added at 1 μM concentration after 48 hrs of transfection and incubated overnight Luciferase activity as a function of drug binding/activation capacity of PPARγ1 will be measured using Packard Luclite kit (Packard, USA) in Packard Top Count (Ivan Sadowski, Brendan Bell, Peter Broag and Melvyn Hollis. Gene. 1992. 118 : 137-141; Guide to Eukaryotic Transfections with Cationic Lipid Reagents. Life Technologies, GIBCO BRL, USA).

C57BL/KsJ-db/db mice = assay: Efficacy in genetic model: plasma glucose and triglyceride lowering in db/db mice; format: in vivo; conditions: 3 mg/kg/d oral gavage, 6 days
Text: a) Efficacy in Genetic Models
Mutation in colonies of laboratory animals and different sensitivities to dietary regimens have made the development of animal models with non-insulin dependent diabetes and hyperlipidemia associated with obesity and insulin resistance possible. Genetic models such as db/db and ob/ob (Diabetes, (1982) 31(1) : 1-6) mice and zucker fa/fa rats have been developed by the various laboratories for understanding the pathophysiology of disease and testing the efficacy of new antidiabetic compounds (Diabetes, (1983) 32: 830-838; Annu. Rep. Sankyo Res. Lab. (1994). 46: 1-57). The homozygous animals, C57 BL/KsJ-db/db mice developed by Jackson Laboratory, US, are obese, hyperglycemic, hyperinsulinemic and insulin resistant (J. Clin. Invest., (1990) 85 : 962-967), whereas heterozygous are lean and normoglycemic. […]
The random blood sugar and triglyceride levels can be measured by collecting blood (100 μl) through orbital sinus, using heparinised capillary in tubes containing EDTA which was centrifuged to obtain plasma. The plasma glucose and triglyceride levels can be measured spectrometrically, by glucose oxidase and glycerol-3-PO4 oxidase/peroxidase enzyme (Dr. Reddy's Lab. Diagnostic Division Kits, Hyderabad, India) methods respectively.

[1] = Swiss albino mice, 3 mg/kg/d oral, 6 days

Compound | melting point | PPAR fold activation, PPAR α at 50 μM concentration (hPPARα) | inhibition in vivo at 3 mg/kg/day (Swiss albino mice; [1]) | PPAR fold activation, PPAR γ at 1 μM concentration (hPPARγ1) | % of Reduction in Triglyceride (C57BL/KsJ-db/db mice) | % of reduction in Plasma glucose (C57BL/KsJ-db/db mice) | inhibition in vivo at 3 mg/kg/day (Swiss albino mice; po)
CCOC(=O)C(Cc1ccc(NCc2ccc3cc(OS(C)(=O)=O)ccc3c2)cc1)OCC (stereo not shown) [Example 2, Ethyl 2-ethoxy-3-[4-{6-methanesulfonyloxynapth-2-ylmethylamino}phenyl]propanoate] | 118 to 120 °C | 3.5 fold | 50% | 15.5 fold |  |  | 
CCOC(Cc1ccc(NCc2ccc3cc(OS(C)(=O)=O)ccc3c2)cc1)C(=O)O (stereo not shown) [Example 24, 2-Ethoxy-3-[4-{6-methanesulfonyloxynapth-2-ylmethylamino}phenyl]propanoic acid] | 168 to 170 °C | 7.4 fold | 46% | 4.5 fold |  |  | 
CO[C@@H](Cc1ccc(NCc2ccc3cc(OS(C)(=O)=O)ccc3c2)cc1)C(=O)O [Example 45, (S)-2-Methoxy-3-[4-{6-methanesulfonyloxynapth-2-ylmethylamino}phenyl]propanoic acid Arginine salt] |  | 5.2 fold |  | 1.4 fold | 28% | 32% | 60%
CO[C@@H](Cc1ccc(NCCCn2ccc3ccccc32)cc1)C(=O)O [Example 48, (S)-2-Methoxy-3-[4-{3-(indol-1-yl)propylamino}phenyl]propanoic acid Arginine salt] |  | 4.6 fold |  | 6.1 fold |  |  | 27%
CCO[C@@H](Cc1ccc(NCCCn2ccc3cc(OS(C)(=O)=O)ccc32)cc1)C(=O)O [Example 49, (S)-2-Ethoxy-3-[4-{3-(5-methanesulfonyloxyindol-1-yl)propylamino}phenyl]propanoic acid Arginine salt] |  | 3.6 fold |  | 1.5 fold |  |  | 54%
CO[C@@H](Cc1ccc(NCCCn2ccc3cc(OS(C)(=O)=O)ccc32)cc1)C(=O)O [Example 50, (S)-2-Methoxy-3-[4-{3-(5-methanesulfonyloxyindol-1-yl)propylamino}phenyl]propanoic acid Arginine salt] |  | 3.5 fold |  | 1.4 fold |  |  | 31%
CCOC(Cc1ccc(NCC2CCc3cc(OS(C)(=O)=O)ccc3C2)cc1)C(=O)O (stereo not shown) [Example 53, 2-Ethoxy-3-[4-{(6-methanesulfonyloxy-1,2,3,4-tetrahydronapth-2-yl)methylamino}phenyl]propanoic acid Arginine salt] |  | 3.7 fold |  | 5.8 fold |  |  | 79%
CCOC(Cc1ccc(NCCCN2CCCc3ccccc32)cc1)C(=O)O (stereo not shown) [Example 55, 2-Ethoxy-3-[4-{3-1,2,3,4-tetrahydroquinolyn-1-yl)propylamino}phenyl]propanoic acid Arginine salt] |  | 3.8 fold |  | 11.9 fold |  |  | 60%
